# Experiment: gradient 5% acetonitrile 3 min, to 50% in 2 min, to 85% in 15 min, held 3 min, 100 µL/min
# Settings: column: Zorbax Extend-C18 2.1 x 50 mm; eluents: water / acetonitrile, 0.1% formic acid
# How it was run: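 Values are retention times taken from adduct peaks that software picked and an analyst inspected. The pure standards were run as mixtures of ~100 molecules on HPLC linked to a quadrupole time-of-flight mass spectrometer, in positive and negative ionization mode. A Zorbax Extend-C18 column (2.1 × 50 mm, 1.8 μm) was used at 100 μL/min with water and acetonitrile, each including 0.1% formic acid.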
row,RP-LC retention time [s],Compound
1,1310,Cc1ccc(-c2coc(-c3cccc(NS(=O)(=O)c4ccc(Cl)s4)c3)n2)cc1
2,725,O=C(NCCn1c(=O)n(Cc2ccccc2)c2cccnc21)c1ccoc1
3,921,CCCn1cc(S(=O)(=O)Nc2ccc(C)c(F)c2)c2cccnc21
4,834,CCC(C(=O)Nc1cccc(C)c1)n1cnc2nc3c(cc2c1=O)CCCC3 (stereo unspecified)
5,657,CCn1cnc(S(=O)(=O)N2CCCC(C(=O)N3CCN(c4ncccn4)CC3)C2)c1 (stereo unspecified)
6,911,COc1cccc(-c2noc(Cn3ccn(-c4cc(C)ccc4C)c(=O)c3=O)n2)c1
7,815,O=C(Cn1cccc1-c1nnc(C2CC2)o1)NCc1ccccc1Cl
8,746,COc1ccc2c(C)c(CCC(=O)N[C@@H](C(=O)O)C(C)C)c(=O)oc2c1C
9,937,Cc1ccc(-n2c(=O)c3c(cc(C)n3C)n(CC(=O)Nc3cccc(Cl)c3)c2=O)cc1
10,740,Cc1noc(-c2nn(C)c3c2CN(C(=O)COc2ccc(F)cc2)CC3)n1
11,671,CCNC(=O)NC1CCN(c2ccc(C)cc2)C1=O (stereo unspecified)
12,688,Cc1c(C(=O)NCCCN2CCOCC2)oc2ccc3c(c12)C(O)CC1(CCCCC1)O3 (stereo unspecified)
13,694,CCn1c(CCNC(=O)c2ccc(C)cc2C)nc2cccnc21
14,624,O=C(NCCn1c(-c2ccncc2)nc2cccnc21)Nc1ccccc1Cl
15,685,NC(=O)C1CCN(C(=O)CCCn2c(=O)c3cccn3c3ccc(Br)cc32)CC1
16,638,CCOc1cc2c(cc1OCC)C1C(C(=O)N3CCN(CC)CC3)c3ccccc3C(=O)N1CC2 (stereo unspecified)
17,618,COc1cccc(CN2C[C@@H](CO)[C@H](c3nc(C4CC4)no3)C2)n1

row,RP-LC retention time [s],Compound
1,1280,CCCCn1c(=O)c2ccccc2n(Cc2nc(-c3cccc(Br)c3)no2)c1=O
2,983,Cc1cccc(N2CCN(S(=O)(=O)c3ccc4c(c3)CCCC(=O)N4)CC2)c1C
3,758,O=C(NCC1CCN(C(=O)COc2ccccc2)CC1)c1ccc(F)c(F)c1
4,615,Cc1c(N2C(=O)C3C4C=CC(C4)C3C2=O)c(=O)n(-c2ccccc2)n1C (stereo unspecified)
5,1190,Cc1ccc(C)c(C(=O)N2CCCC2c2nc(-c3cccc(Cl)c3)no2)c1 (stereo unspecified)
6,940,O=C(Nc1ccccc1F)N1CCCC1c1nc(-c2ccccc2)no1 (stereo unspecified)
7,874,CN(CC(=O)Nc1nnc(SCc2ccc(Cl)cc2Cl)s1)S(C)(=O)=O
8,978,CC1=NS(=O)(=O)N(C)C=C1C(=O)OCc1ccc(Cl)cc1
9,552,c1ccc(O[C@H]2CN(C3CCNCC3)[C@H]2c2ccncc2)cc1
10,950,CCOc1ccc(S(=O)(=O)N(C)C)c2ccccc12
11,642,CC(=O)N1CCc2cc(N3CC(C(=O)NC4CCCC4)CC3=O)ccc21 (stereo unspecified)
12,779,Cc1cccc(C(=O)N2CCC3(CC2)NC(=O)c2cc(F)ccc2N3C)c1
13,731,CCOc1ccc(N2CCn3c2nn(Cc2ccc(C(=O)OC)o2)c(=O)c3=O)cc1
14,986,Cc1nn(-c2ccccc2)c(C)c1S(=O)(=O)N1CCC(C(=O)Nc2cccc(F)c2)CC1
15,900,Cc1nc2nc(-c3ccc(C(C)(C)C)cc3)nn2c(C)c1CC(=O)N1CCCC1
16,765,CN(C)c1nccnc1OC1CCN(C(=O)C2CCCCC2)C1 (stereo unspecified)

row,Compound,RP-LC retention time [s]
1,Cc1cc(OCC(=O)N[C@H](C(=O)O)C(C)C)c2c3c(c(=O)oc2c1)CCCC3,837
2,O=C(NCc1cccs1)c1c(O)c2cccnc2n(Cc2ccccc2)c1=O,1310
3,CCOC(=O)CCNC(=O)N1[C@H]2CC[C@@H]1c1cnc(-c3ccccc3)nc1C2,794
